Experimental data from patent US20060211705A1, “'N-(2-chloro-6-methylphenyl)-2-[[6-[4-(2-hydroxyethyl)-1-piperazinyl]-2-methyl-4-pyrimidinyl]amino]-5-thiazolecarboxamides metabolites” (priority 2005, published 2006).

Assays:
[1] = Metabolite profile of [14C] compound (I) in human liver microsome incubations; assay type: in vitro ADME; conditions: (Ia) 20 μM, 15 min, 37° C., 2 mg/mL microsomal protein, 2.0 mM NADPH
Procedure: (§1) The compound of formula (I) was used as the [^14C] compound (Ia) (30.4 μCi/mg, radiochemical purity 99.2%), as the monohydrate of the free base. The C-14 label was on the carbon in the 2-position of the thiazole ring.
(§2) Freshly isolated rat hepatocyte preparations were prepared from one male Sprague-Dawley rat. Rat Hepatocytes were prepared according to a standard procedure (Seglen, PO. Preparation of isolated rat liver cells. Methods Cell Biol., 1976, 13: 29-83). Cryopreserved cynomolgus monkey hepatocytes (male, pooled, n=6) and human hepatocytes (3 individual preparation) were purchased from In Vitro Technologies (Baltimore, Md.). Microsomes from male SD Rats (pooled, n=200, 20 mg/mL) and male cynomolgus monkeys (pooled, n=8, 20 mg/mL) were obtained from Xenotech LLC, Kansas City, Kans. Human liver microsomes (male, pooled, n=38) were from BD-Gentest, Woburn, Mass.
(§3) A 6 mM stock solution of the compound of formula (Ia) (the [^14C] of the compound of formula (I) was prepared at by dissolving 3.7 mg of the compound of formula (Ia) into 1:1 acetonitrile/DMSO. The 2 mM stock solution of the compound of formula (Ia) was obtained by diluting an aliquot of the 6 mM stock solution 3-fold with acetonitrile.
(§4) Hepatocyte incubations were conducted at 37° C. for 3 h in a NAPCO CO2 6000 incubator (VWR Scientific Products) under a 5% CO2 atmosphere using an orbital shaker at 90 rpm. For each incubation, the final concentration of compound (Ia) was 20 μM and the hepatocyte concentrations were ˜2 million cells/mL. A control incubation, in the absence of hepatocytes, was also performed for 3 h. The incubations were stopped by adding one volume of ice-cold acetonitrile. Each 0.5 mL incubation contained 0.1 M potassium phosphate buffer (pH 7.4), 2.5 mM MgCl2, 2 mg/mL microsomal protein, and 2.0 mM NADPH. The final substrate concentration was 20 μM. The mixtures were incubated in a shaking water bath at 37° C. for 15 min. Control incubations in the absence of microsomes or NADPH were performed for each species. The reactions were stopped with the addition of 1 mL of ice-cold acetonitrile.
(§5) HPLC was performed on a Waters Alliance™ system equipped with Waters 2695 pumps and a photodiode array detector (Waters 2996). A Phenomenex Synergy Polar-RP® column (4.6×250 mm, 5 micron) was used for metabolite separation. All HPLC analyses were performed at 1 mL/min flow rate at room temperature. Two HPLC mobile phase and gradient systems were used because all metabolites could not be completely separated on either of the individual HPLC systems. The first system consisted of (A) water with 0.1% formic acid and (B) acetonitrile with 0.1% formic acid as mobile phase. The linear gradient was as follows: 0 min, 20% B; 1 min, 20% B; 41 min, 35% B; 42 min, 90% B; 44 min, 90% B. The column was re-equilibrated at 20% B for 6 min before the next injection. The second HPLC system was used to separate certain co-eluting metabolites that could not be separated by the first system. The mobile phase consisted of (A) water with 0.1% triflouroacetic acid (TFA) and (B) acetonitrile with 0.1% TFA. The gradient was as follows: 0 min, 20% B; 1 min, 20% B; 51 min, 35% B; 52 min, 90% B; 54 min 90% B. The column was equilibrated at 20% B for 6 min prior to the next injection.
(§6) On-line radioactivity detection (RAD) was conducted using an INUS β-RAM detector (Model 3, INUS, Tampa, Fla.). The β-RAM was operated with a 500 μL liquid flow cell in the homogeneous liquid scintillation counting mode. A flow rate of 2 mL/min of scintillation cocktail was mixed with the HPLC effluent. The effluent from HPLC was split to the β-RAM detector (90%) and the mass spectrometer (10%) by adjusting the length and diameter of post column tubings. The β-RAM detector provided integrated output detailing the percentage and amount of radioactivity under each radioactive peak.
(§7) Hepatocyte and liver microsomal incubations were quenched with acetonitrile and were vortex-mixed for 3 min. […]

[2] = Metabolite profile of [14C] compound (I) in monkey liver microsome incubations; assay type: in vitro ADME, cynomolgus monkey; conditions: (Ia) 20 μM, 15 min, 37° C., 2 mg/mL microsomal protein, 2.0 mM NADPH
Procedure: as §1, §2, §3, §4, §5, §6, §7

[3] = Metabolite profile of [14C] compound (I) in monkey hepatocyte incubations; assay type: in vitro ADME, cynomolgus monkey; conditions: (Ia) 20 μM, 3 h, 37° C., ~2 million cells/mL; relative distribution in radiochromatographic profile
Procedure: as §1, §2, §3
Human (3 vials from 3 individuals) and monkey cryopreserved hepatocytes were thawed according to the procedure provided by In Vitro Technologies. Briefly, the caps of the cryovials were loosened to release any trapped liquid nitrogen and kept on ice for 2 min. The caps were tightened and the vials were immersed in a 37° C. water bath for 75-90 sec with gentle shaking. The thawed samples (3 cryovials/[…] for each 50 mL tube) were transferred into 25 mL pre-warmed Krebs-Henseleit buffer in a 50 mL tube and gently inverted. The suspensions were evenly divided into 2 tubes and diluted to 40 mL with pre-warmed Krebs-Henseleit buffer. The tubes were centrifuged in an Eppendorf 5810R centrifuge (Hamburg, Germany) at 200 rpm at 4° C. for 10 min. The supernatant was discarded and the pellet gently suspended in 2 mL of Krebs-Henseleit buffer. All the tubes were combined into one tube, rinsing the empty tubes with 1 mL Krebs-Henseleit buffer. The cells were counted, checked for viability and diluted accordingly with modified Krebs-Henseleit buffer to give a final concentration of 2 million viable cells/mL.
Viability of the hepatocytes was checked using a Trypan Blue exclusion assay and a hemocytometer. A mixture of 0.1 mL of the hepatocyte suspension and 0.1 mL of trypan blue solution were diluted with 0.8 mL of Krebs-Henseleit buffer. The solution was gently mixed and plated onto a Levy hemocytometer (Hausser Scientific) and the viable cells (unstained) were counted under a light microscope. The viability of the hepatocytes ranged from 77% to 90% at the beginning of the incubations.
as §4
HPLC was performed on a Waters Alliance™ system equipped with Waters 2695 pumps and a photodiode array detector (Waters 2996). A Phenomenex Synergy Polar-RP® column (4.6×250 mm, 5 micron) was used for metabolite separation. […]

% of Radioactivity in Microsomes, Human [1]	% of Radioactivity in Microsomes, Monkey [2]	% of Radioactivity in Hepatocytes, Monkey [3]	SMILES
39.2%	30.0%	4.5%	Cc1nc(Nc2ncc(C(=O)Nc3c(C)cc(O)cc3Cl)s2)cc(N2CCN(CCO)CC2)n1 [M20 (V)]
4.0%	5.8%	3.7%	Cc1nc(Nc2ncc(C(=O)Nc3c(C)cccc3Cl)s2)cc(N2CCNCC2)n1 [M4 (II)]
35.5%	27.7%	61.2%	Cc1nc(Nc2ncc(C(=O)Nc3c(C)cccc3Cl)s2)cc(N2CCN(CCO)CC2)n1 [Parent (I), N-(2-Chloro-6-methylphenyl)-2-[[6-[4-(2-hydroxyethyl)-1-piperazinyl]-2-methyl-4-pyrimidinyl]amino]-5-thiazolecarboxamide]
39.2%	30.0%	4.5%	Cc1nc(Nc2ncc(C(=O)Nc3c(Cl)cccc3CO)s2)cc(N2CCN(CCO)CC2)n1 [M24 (VI), N-(2-chloro-6-(hydroxymethyl)phenyl)-2-(6-(4-(2-hydroxyethyl)piperazin-1-yl)-2-methylpyrimidin-4-ylamino)thiazole-5-carboxamide]
4.0%	8.6%	3.2%	Cc1nc(Nc2ncc(C(=O)Nc3c(C)cccc3Cl)s2)cc(N2CC[N+]([O-])(CCO)CC2)n1 [M5 (III)]
1.6%	2.1%	6.5%	Cc1nc(Nc2ncc(C(=O)Nc3c(C)cccc3Cl)s2)cc(N2CCN(CC(=O)O)CC2)n1 [M6 (IV), 2-(4-(6-(5-((2-Chloro-6-methylphenyl)carbamoyl)thiazol-2-ylamino)-2-methylpyrimidin-4-yl)piperazin-1-yl)acetic acid]
